In patent US20210196654A1, “METHOD OF TREATING CONDITIONS” (Clexio Biosciences Ltd., priority 2019, published 2021):
Read-outs that look alike come from different tables or passages of the source.

What was measured:
[1] = tested on: human peripheral blood lymphocytes (HPBL); conditions: for structural or numerical (polyploid or endoreduplicated cells) aberrations: non-activated 4 and 20-hour exposure, 60, 120, 238 μg/mL
Experimental: The clastogenic potential of esketamine was evaluated in the in vitro mammalian chromosome aberration test using human peripheral blood lymphocytes (HPBL) in both the absence and presence of an induced metabolic activation system (the 9000 g supernatant [S9] microsomal fraction of liver homogenate from rats exposed to Aroclor-1254).
The study was conducted in 2 phases, with a preliminary toxicity test used to determine the appropriate concentrations for the definitive chromosomal aberration assay. Water was used as a negative (vehicle) control. Toxicity (defined as >45% reduction in MI relative to the vehicle control) was evaluated at 9 concentrations, ranging from 0.0238 to 238 μg/ml, after exposure of HPBL to esketamine for 20 hours in the absence of S9 activation, or for 4 hours, either in the presence or absence of S9 activation, followed by a 16-hour recovery period.
The definitive chromosome aberration assay evaluated HPBL cells after exposure to esketamine for 20 hours in the absence of S9 activation, or for 4 hours, either in the presence of absence of S9 activation, followed by a 16-hour recovery. Positive controls for chromosomal aberrations in non-activated and S9-activated evaluations, respectively, consisted of mitomycin C (MMC, 0.6 and 0.3 μg/mL for the 4- and 20-hour exposures, respectively) and cyclophosphamide (CP, 2.5, 5, and 7.5 μg/mL). […] Initially, the doses selected for evaluation of chromosomal aberrations were 60, 120, and 238 μg/mL for the non-activated 4- and 20-hour treatment conditions; and 30, 60, and 200 μg/mL for the S9-activated 4-hour treatment condition.

[2] = tested on: male Sprague Dawley rats; experiment: 7-day forced swim test; type: in vivo, rat; conditions: for decrease in immobility time: 7 daily doses, test 30 min after dosing
Experimental: Groups of, 6-7 week old, male Sprague Dawley rats were administered esketamine by intraperitoneal injection and their behavioral despair assessed by a forced swim test. The animals, in cohorts of 10, were administered either a single dose of 15mg/kg esketamine, 7 daily doses of either 7.5 or 15 mg/kg esketamine or a vehicle control, and the test performed 30 minutes after dosing. Statistical evaluation was performed using an ordinary One-Way ANOVA, t Test and an Uncorrected Fisher's LSD comparisons test.

[3] = tested on: Sprague Dawley rats; experiment: Repeated dose 28 day toxicity study; type: in vivo, rat; conditions: 28 days oral gavage
Experimental: The objective of the study was to assess the potential toxicity, neurobehavioral effects, and toxicokinetics (TK) of esketamine when administered orally, via gavage, to Sprague Dawley rats for 28 days and to evaluate recovery during a 14-day drug-free period. Fifty male and 50 female rats were randomized into 4 groups (15/sex/Groups 1 and 4; 10/sex/Groups 2 and 3). Esketamine was administered via oral gavage once daily for 28 consecutive days to males at 0 (vehicle control), 6, 10 or 30 mg/kg/day and females at 0 (vehicle control), 2, 10 or 20 mg/kg/day in a dose volume of 10 mL/kg. Animals were observed until euthanized and necropsied on Day 29 (10/sex/group) or 43 (5/sex from Groups 1 and 4). Toxicity was evaluated based on mortality, clinical observations, body weights, food consumption, ophthalmology, motor activity, functional observational battery, clinical pathology (clinical chemistry, hematology, coagulation and urinalysis), organ weights, anatomic (macroscopic or microscopic) pathology. Toxicokinetic animals (3/sex/Group 1; 6/sex/Groups 2, 3, and 4) were similarly dosed and bled on Day 1 and during Week 4 for toxicokinetic analysis.

[4] = Oye et al (1992); cited from earlier work
[5] = tested on: NMDA receptor; conditions: Ebert et al (1997); cited from earlier work
[6] = Single dose crossover study in healthy volunteers, pharmacokinetics; conditions: both, human, plasma; for AUC(0-inf): AUC0-inf; for AUC(0-inf) / AUC(0-t) / Cmax: geometric mean; for AUC(0-t): AUC0-t; for Cmax: 15 subjects; for half-life: t1/2, geometric mean; for Tmax: median
From the text: A randomized, open-label 4-way crossover study in 16 healthy male and female subjects was held wherein said subjects were placed in a randomly assigned order and administered esketamine. Each subject was assigned to 1 of 4 treatment sequences according to a randomization code such that 4 subjects were assigned to each treatment sequence. There was a wash-out period of at least 7 days between dosing periods with doses consisting of either oral or intravenous esketamine hydrochloride. The study consisted of an eligibility screening period of 28 days, 4 study periods involving administration of a single dose of esketamine hydrochloride followed by safety assessments with blood sampling for PK purposes up to 72 hours after study drug administration, discharge at 72 hours after study drug administration and a follow-up visit 7-14 days after the last PK blood sample was taken on Day 4.

[7] = iv, 0.3 mg/kg, plasma analyte after single dose esketamine 0.3 mg/kg iv
[8] = po, 20 mg, plasma analyte after single dose esketamine 20 mg oral solution
[9] = po, 20 mg, plasma analyte after single dose esketamine 20 mg oral tablet
[10] = po, 100 mg, plasma analyte after single dose esketamine 100 mg oral tablet

For CN[C@]1(c2ccccc2Cl)CCCCC1=O [esketamine, (2S)-2-(2-Chlorophenyl)-2-(methylamino) cyclohexanone], the “Cochran-Armitage test, structural aberrations” value [1] was “positive for a dose response”, the “Toxicity (>45% reduction in MI relative to vehicle control), preliminary toxicity test” value [1] was “not observed at any dose” and the “induction of structural chromosomal aberrations” value [1] was “positive”. For the same compound, the “doses at which cytotoxicity was observed” value ([1]; human) was over 200 µg/mL, the “cytotoxicity (>45% reduction in mitotic index), chromosomal aberration assay” value ([1]; non-activated 4- and 20-hour treatment) was “not observed at any esketamine dose” and the “structural or numerical (polyploid or endoreduplicated cells) aberrations” value [1] was “no significant or dose-dependent increases”. The “structural or numerical (polyploid or endoreduplicated cells) aberrations” value ([1]; listed as Esketamine) was “negative”, the “decrease in immobility time” value ([2]; 7.5 mg/kg ip) was 40% and the “decrease in immobility time” value ([2]; 15 mg/kg ip) was 60%. For the same compound, the “extent of effect on immobility time” value ([2]; 15 mg/kg ip, single acute dose) was 42 % of control, the “antidepressant-like effect, continuous 7-day treatment vs single dose” value ([2]; same dose levels) was “stronger antidepressant-like effect than a single acute dose” and the “effects on clinical signs, body weights, food consumption, ophthalmology, motor activity, functional observational battery, clinical pathology or anatomic pathology” value [3] was “no esketamine -related effects”. For the same compound, the mortality ([3]; males 6, 10, 30, females 2, 10, 20 mg/kg/day) was “no mortality”, the “potency relative to (R)-ketamine in reducing pain perception and in causing auditory and visual disturbances” value [4] was 4 times and the “affinity for the NMDA receptor relative to (R)-ketamine” value [5] was 5 times. The AUC(0-inf) [6, 7] was 257 ng·h/mL, the AUC(0-t) [6, 7] was 249 ng·h/mL and the Cmax [6, 7] was 94.5 ng/mL. The half-life [6, 7] was 10.2 h, the Tmax [6, 7] was 1 h and the AUC(0-inf) [6, 8] was 25.8 ng·h/mL. For the same compound, the AUC(0-inf) [6, 9] was 22.5 ng·h/mL, the AUC(0-t) [6, 8] was 23.4 ng·h/mL and the AUC(0-t) [6, 9] was 20.1 ng·h/mL. The Cmax [6, 8] was 16.5 ng/mL, the Cmax [6, 9] was 11.9 ng/mL and the half-life [6, 8] was 2.91 h. For the same compound, the half-life [6, 9] was 2.84 h, the Tmax [6, 8] was 0.5 h and the Tmax [6, 9] was 0.75 h. It also gave an AUC(0-inf) [6, 10] of 181 ng·h/mL, an AUC(0-t) [6, 10] of 173 ng·h/mL and a Cmax [6, 10] of 65.3 ng/mL. It also gave a half-life [6, 10] of 7.66 h and a Tmax [6, 10] of 0.75 h.
